From article PMC8480782, “Efficient Dimerization Disruption of Leishmania infantum Trypanothione Reductase by Triazole-phenyl-thiazoles” (Journal of Medicinal Chemistry, 2021)

Assays:
[1] = target: T1, LiTryR (Leishmania infantum, UniProt A4HSF7); assay: Trypanothione-dependent NADPH oxidation assay (initial velocities); type: biochemical
T1 construct: HIS (N); made in house; host or cells: E. coli BL21 (DE3) Rossetta
Protocol: Despite the loss of activity observed during the reaction, dependency of the initial velocities (vi) on 19a and TS2 concentrations could be fitted to a model in which a rapid equilibrium is reached between the free enzyme and inhibitor (E + I) and the enzyme/inhibitor (EI) complex (Scheme 4). This analysis, based on vi values, was performed both in a DTNB-coupled assay and in a direct NADPH-oxidation assay (Figure S1 and Table S1).
Figure S1. Noncompetitive hyperbolic inhibition of Li TryR by 19a. Initial velocities were used for determination of the KKi value and assessment of the inhibition modality of 19a by two different methods: DTNB-coupled assay (absorbance readings at 412 nm) (A) and trypanothione- dependent NADPH oxidation assay (absorbance readings at 340 nm) (B).
Lineweaver–Burk plots of reciprocal initial velocities ( vi) versus reciprocals of four TS2 concentrations (12.5, 25, 50 and 100 μM) are shown. Experimental conditions in both experiments were similar to those described in the experimental section except that for the NADPH oxidation assay NADPH concentration was raised to 500 µM, NADP+ to 100 µM and 4.8 mM of oxidized glutathione was added. Data were f itted using the hyperbolic noncompetitive- mode equation described by Leskovac: […]
Table S1. Estimation of β and Ki in the noncompetitive hyperbolic inhibition mechanism by […]

[2] = target: T1, LiTryR; assay: Residual activity of LiTryR after incubation with inhibitor and 2500-fold dilution; type: biochemical; settings: LiTryR 400 nM, 25 μM inhibitor 16 h
Protocol: Adjustment to eq 1 (see equations in Experimental Section) of the progress curves of the reactions catalyzed by LiTryR allowed us to obtain the kobs values for six 19a concentrations (4.4, 5.9, 7.9, 10.5, 14.1, and 18.7 μM) at six different TS2 concentrations (3.1, 6.2, 12.5, 25, 50, and 100 μM) (Figures S2–S7 and Table S2). The different kobs values obtained at each substrate concentration can be used to determine the apparent inhibitory constants Ki^app and Ki*^app defined as the dissociation constant for the initial EI complex and the constant for the overall dissociation from E*I to E + I, respectively (eq 2).[42a],[42b] Based on the relationship among kobs, vi, and vs (k6 = kobs × vi/vs) at all of the trypanothione disulfide (TS2) and 19a concentrations assayed, k6 varies between 3.9 × 10^–6 and 6.5 × 10^–5 s^–1. […] Fixing this value for k6 rendered very good estimations of Ki^app and Ki*^app after the fitting process for all of the substrate concentrations assayed (Figure 3 and Table 2).
Scheme S4. Reversible sing le-step mechanism of t im e- dependent inhibition of Li TryR by […]
& A slow and reversible equilibrium between enzyme and inhibitor is governed by association and dissociation rate constants (k3 and k4, res pec tively).
Figure S13. Residual activity of Li TryR after incubation with 19a. […] Samples were diluted (2500-fold) and residual activity was evaluated. […]

T1 sequence (A4HSF7 1-491): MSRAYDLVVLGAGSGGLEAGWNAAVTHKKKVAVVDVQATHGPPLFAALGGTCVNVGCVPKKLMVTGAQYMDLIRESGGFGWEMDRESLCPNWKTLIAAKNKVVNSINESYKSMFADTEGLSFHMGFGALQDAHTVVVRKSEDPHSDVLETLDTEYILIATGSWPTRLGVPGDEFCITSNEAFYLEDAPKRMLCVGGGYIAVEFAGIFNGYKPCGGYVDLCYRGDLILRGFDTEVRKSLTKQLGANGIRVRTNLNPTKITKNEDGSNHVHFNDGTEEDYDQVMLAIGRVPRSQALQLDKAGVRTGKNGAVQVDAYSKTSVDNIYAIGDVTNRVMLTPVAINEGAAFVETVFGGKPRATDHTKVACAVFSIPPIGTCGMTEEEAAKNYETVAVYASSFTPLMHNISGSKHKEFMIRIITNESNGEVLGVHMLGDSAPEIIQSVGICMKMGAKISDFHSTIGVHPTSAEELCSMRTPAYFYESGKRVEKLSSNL

In the case of `NCCCCc1cn(-c2ccc(-c3nc(-c4ccccc4)c(-c4ccccc4)s3)c(OCCN3CCNC3=O)c2)nn1.O=C(O)C(F)(F)F` [19a, 1-(2-(5-(4-(4-Ammoniobutyl)-1H-1,2,3-triazol-1-yl)-2-(4,5-diphenylthiazol-2-yl)phenoxy)ethyl)imidazolidin-2-one 2,2,2-Trifluoroacetate], the Ki [1] is reported as 2500 ± 700 nM, the “β, noncompetitive hyperbolic inhibition mechanism” value ([1]; NADPH oxidation assay, initial velocities, alpha value of 1) is reported as 0.2 ± 0.1 and the “recovery of enzymatic activity after inactivation” value [2] is reported as “extremely slow process of recovery of the enzymatic activity”.
